Data reported in publication PMC11513893, “Discovery of Oral Degraders of the ROS1 Fusion Protein with Potent Activity against Secondary Resistance Mutations” (Journal of Medicinal Chemistry, 2024).
Like-named read-outs stand apart in the source and are kept apart here.

How the values were obtained:
[1] = Pharmacokinetics study in Sprague–Dawley rats; format: in vivo; conditions: rat
Procedure: Four to 6 weeks old Sprague–Dawley rats [Crl: CD (SD)] (SPF/VAF) were purchased from Charles River (Wilmington MA). Animals were quarantined/acclimated for 2–6 weeks prior to dose initiation. Sprague–Dawley rats were given oral administration of test compounds (20% PG, 5% Solutol, and 75% of 20% HP-β-CD in water) at different dose levels. After treatment with the compounds, whole blood was collected from each study animal by puncture of the tail vein (0.4 mL of whole blood from rats) into tubes containing K2EDTA at each time point. The plasma samples were divided into 2 aliquots (approximately equal in volume) and stored frozen at −75 ± 15 °C within 2 h of the collection until analysis.
The stock solution of the test compound (0.01 M) in DMSO was prepared and stored at −20 ± 5 °C. The desired serial concentrations of working reference analyte solutions were achieved by diluting a stock analyte solution with 50% acetonitrile (0.1% formic acid) in water solution. The bioanalytical LC–MS/MS method was developed for quantitative determination of each test compound in Sprague–Dawley rat plasma with acceptable selectivity, sensitivity, calibration curve, precision, and accuracy. The analytical method is applicable for the determination of test compounds in Sprague–Dawley rat plasma with a lower limit of quantification of 10.0 ng/mL and an upper limit of quantification of 5000 ng/mL. Five microliters of diluted supernatant was injected into the LC–MS/MS system (TSQ Quantis) and a SynergiTM 4 μm Fusion-RP 80 Å (50 × 2 mm) column using gradient elution and a Triple Quad mass spectrometer) for quantitative analysis. The mobile phases used were 0.1% formic acid in deionized water and 0.1% formic acid in acetonitrile. The pharmacokinetic parameters T1/2 (the biological half-life), Cmax (maximal concentration), Tmax (time at which Cmax is observed), and AUC (area under the plasma concentration–time curve) were calculated from the plasma concentration versus time data using WinNonlin (PhoenixTM, version 8.1, Mountain View, CA, USA).

[2] = Metabolic stability in rat microsomes; format: in vitro ADME; conditions: rat, pooled rat microsomes, pH 7.4, 250 nM compound, NADPH, 37 °C; for half-life at 1 h, 0.25 µM: read-out: metabolic stability in rat microsomes T1/2
Procedure: (§1) Pooled human and rat microsomes were prepared and stored at −80 °C prior to use. A master-mix containing microsome, phosphate buffer, and test compound (9 series) solution was made as follows: (1) 3 μL of microsome (20 mg/mL) was diluted with mixed 30 μL of potassium phosphate buffer (pH 7.4; 10×) and 246 μL of water; (2) 3 μL of 25 μM drug solution was added to the microsome; (3) the master solution was prewarmed at 37 °C for 5 min. NADPH solution A (15 μL) and NADPH solution B (3 μL) from Promega were added to the above-mentioned master solution to initiate the reaction. The final concentration of 9 compounds in the reaction system was 250 nM. An aliquot of 20 μL was pipetted from the reaction solution and stopped by the addition of 180 μL of cold MeCN containing 25 ng of Tamoxifen-(N,N-dimethyl-13C2)-15N as an internal standard at the designated time points (0, 5, 15, 30, 45, and 60 min). The incubation solution was vortexed-mixed (800 rpm/10 min) and centrifuged at 3500 rpm for 10 min to precipitate proteins. The supernatant was collected and used for the LC/MS/MS analysis. The natural log of the remaining percentage of the test compound was plotted against time and the gradient of the line was determined.

[3] = Pharmacokinetics study in Sprague–Dawley rats; format: in vivo; conditions: rat; remark: listed apart in the source
[4] = system: Ba/F3 CD74-ROS1 non mutant; assay: Antiproliferation assay (Alamar Blue, 72 h); format: cell-based, mouse; conditions: cell growth inhibition
[5] = system: ROS1; assay: ROS1 degradation in Ba/F3 cells (WES immunoblotting); format: cell-based; conditions: for DC50: concentration needed to reduce ROS1 protein by 50%, Ba/F3 cells; for Dmax (%) (ROS1): maximal degradation of ROS1 in Ba/F3 cells
In short: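 ROS1 and phospho-ROS1 (Tyr2274/2334) in Ba/F3 lysates quantified by capillary immunoassay (WES) with chemiluminescent detection, duplicate experiments. Levels expressed as AUC of the chemiluminescence peak.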

[6] = Log P measurement; format: physicochemical
Description: An important physicochemical property for a PROTAC molecule is its lipophilicity that largely dictates its pharmaceutical performance such as absorption, permeability, and distribution.

[7] = Metabolic stability in human microsomes; format: in vitro ADME; conditions: human, pooled human microsomes, pH 7.4, 250 nM compound, NADPH, 37 °C; for half-life at 1 h, 0.25 µM: read-out: metabolic stability in human microsomes T1/2
Procedure: as §1

[8] = system: Ba/F3 ROS1-G2032R; assay: Antiproliferation assay; format: cell-based, mouse; conditions: Mus musculus, BaF3; Ba/F3 cells, cell growth inhibition, 72 h
[9] = system: Ba/F3 ROS1 L2086F; assay: Antiproliferation assay; format: cell-based; conditions: Mus musculus, BaF3; Ba/F3 cells, cell growth inhibition
Description: To assess targeted degradation of ROS1 fusion proteins, we first established a mouse pro-B cell line Ba/F3 as a model expressing the CD74-ROS1 oncogene or CD74-ROS1 with clinically observed secondary/tertiary mutations. The Ba/F3 cell line is dependent on interleukin-3 for survival and proliferation. Upon transduction of oncogenic ROS1, Ba/F3 cells become independent of interleukin-3 but dependent on the transduced driver gene. The Ba/F3 models have been effectively employed in the discovery and preclinical development of next generation ROS1 inhibitors.[11],[14],[15] We have tested ROS1 inhibitors against these Ba/F3 cells to validate their sensitivity and resistance to ROS1 inhibition.
(§2) Ba/F3 immortalized murine bone marrow–derived pro-B cells were obtained from Creative Biogene (Shirley, NY) and cultured in RPMI supplemented with 10% FBS and IL3 (0.5 ng/mL). Ba/F3 cells expressing ROS1 variants were maintained in RPMI supplemented with 10% FBS and puromycin (0.7 mg/mL). Crizotinib, ceritinib, brigatinib, repotrectinib, and lorlatinib were purchased from MedChem Express. Each compound was dissolved in DMSO and serially diluted in RPMI for cell culture experiments.
(§3) To assess the 72 h effect of drug treatment on cell proliferation, 2000 to 3000 cells were plated in replicates of three in 96-well plates. The plates were placed in an incubator at 37 °C, 5% CO2 for 72 h. Following drug treatments, the cells were incubated with the Alamar Blue Assay reagent (BioRad), 5 μL each well for 4 h at 37 °C and 5% CO2. Luminescence was measured on a multiplate reader and analyzed. […] IC50 values were determined using a nonlinear regression model with a sigmoidal dose response in GraphPad. The data were collected based on triplicate experiments, and presented as mean ± SD.
cDNA encoding CD74-ROS1 or mutant CD74–ROS1 was cloned into retroviral expression vectors (pLenti), and viruses were generated in HEK293T cells by transfecting with packaging plasmids. The resulting virus was used to infect Ba/F3 cells. After retroviral infection, Ba/F3 cells were selected by incubation with puromycin (0.7 mg/mL) for 2 weeks. For Ba/F3 cells infected by the CD74–ROS1 variants, IL3 was withdrawn from the culture medium at least 2 weeks before the experiments.

[10] = system: Ba/F3 ROS1 L2026M; assay: Antiproliferation assay; format: cell-based; conditions: Mus musculus, BaF3; Ba/F3 cells, cell growth inhibition
Description: (§4) To assess targeted degradation of ROS1 fusion proteins, we first established a mouse pro-B cell line Ba/F3 as a model expressing the CD74-ROS1 oncogene or CD74-ROS1 with clinically observed secondary/tertiary mutations. The Ba/F3 cell line is dependent on interleukin-3 for survival and proliferation. Upon transduction of oncogenic ROS1, Ba/F3 cells become independent of interleukin-3 but dependent on the transduced driver gene.
as §2, with “Crizotinib, ceritinib, brigatinib, repotrectinib, and lorlatinib were purchased from MedChem Express.” left out
as §3
(§5) The resulting virus was used to infect Ba/F3 cells. After retroviral infection, Ba/F3 cells were selected by incubation with puromycin (0.7 mg/mL) for 2 weeks. For Ba/F3 cells infected by the CD74–ROS1 variants, IL3 was withdrawn from the culture medium at least 2 weeks before the experiments.

[11] = system: Ba/F3 ROS1 D2033N; assay: Antiproliferation assay; format: cell-based; conditions: Mus musculus, BaF3; Ba/F3 cells, cell growth inhibition
Description: as §4
as §2, with “Crizotinib, ceritinib, brigatinib, repotrectinib, and lorlatinib were purchased from MedChem Express.” left out
as §3, §5

[12] = system: Ba/F3 ROS1 G2032R-F2075V; assay: Antiproliferation assay; format: cell-based; conditions: Mus musculus, BaF3; Ba/F3 cells, cell growth inhibition
Description: as §4
as §2, with “Crizotinib, ceritinib, brigatinib, repotrectinib, and lorlatinib were purchased from MedChem Express.” left out
as §3, §5

[13] = Sprague-Dawley [Crl: CD (SD)], plasma, 10 mg/kg po
[14] = Sprague-Dawley [Crl: CD (SD)], plasma, 10 mg/kg po, read-out: AUC (po)
[15] = Sprague-Dawley [Crl: CD (SD)], plasma, 10 mg/kg po, read-out: Tmax
[16] = Mus musculus, BaF3, 72 h, Ba/F3 cells

Structure (SMILES)	Cmax at 24 h [1, 13]	half-life [1, 13]	AUC [1, 14]	Tmax [1, 15]	microsomal CLint at 1 h, 0.25 µM [2]	half-life at 1 h, 0.25 µM [2]	IC50 [4, 16]	DC50 [5]	Dmax (%) (ROS1) [5]	logP [6]	microsomal CLint at 1 h, 0.25 µM [7]	half-life at 1 h, 0.25 µM [7]	IC50 [8]	other results
COc1cc(N2CCC(N3CCN(CC4CCN(c5ccc6c(c5)C(=O)N(C5CCC(=O)NC5=O)C6=O)CC4)CC3)CC2)ccc1Nc1ncc(Cl)c(Nc2ccccc2P(C)(C)=O)n1 (centres unmarked) [9f, 5-(4-((4-(1-(4-((5-Chloro-4-((2-(dimethylphosphoryl)phenyl)amino)pyrimidin-2-yl)amino)-3-methoxyphenyl)piperidin-4-yl)piperazin-1-yl)methyl)piperidin-1-yl)-2-(2,6-dioxopiperidin-3-yl)isoindoline-1,3-dione]	284 ng/mL	8.32 h	3030 ng·h/mL	2 h	8.8 µL/min/mg	2.62 h	11.2 nM	13 nM	99%	2.88	63.4 µL/min/mg	0.917 h	27 ± 10 nM	bioavailability ([1]; Sprague-Dawley [Crl: CD (SD)], plasma, 10 mg/kg po vs 1 mg/kg iv): 9.8%; AUC (iv) ([3]; 1 mg/kg iv): 3093 ng·h/mL; IC50 ([4]; Ba/F3 cells): 11 ± 2 nM
CN1CCN(c2ccc(C(=O)Nc3n[nH]c4ccc(Cc5cc(F)cc(F)c5)cc34)c(NC3CCOCC3)c2)CC1 [entrectinib]	–	–	–	–	–	–	–	–	–	–	–	–	980 ± 77 nM	IC50 ([4]; Mus musculus, BaF3, Ba/F3 cells): 2.4 ± 0.4 nM; IC50 [9]: 506 ± 97 nM; IC50 [10]: 56 ± 7 nM; IC50 [11]: 132 ± 15 nM; IC50 [12]: > 2000 nM
COc1cc(N2CCN(CC3CN(c4ccc5c(c4)CN(C4CCC(=O)NC4=O)C5=O)C3)CC2)ccc1Nc1ncc(Cl)c(Nc2ccccc2P(C)(C)=O)n1 (centres unmarked) [9m, 3-(5-(3-((4-(4-((5-Chloro-4-((2-(dimethylphosphoryl)phenyl)amino)pyrimidin-2-yl)amino)-3-methoxyphenyl)piperazin-1-yl)methyl)azetidin-1-yl)-1-oxoisoindolin-2-yl)piperidine-2,6-dione]	–	–	–	–	9.6 µL/min/mg	2.41 h	8 ± 0.9 nM	9 nM	94%	3.07	94.5 µL/min/mg	0.615 h	120 ± 27 nM	Cmax at 24 h ([1]; Sprague-Dawley [Crl: CD (SD)], plasma, 5 mg/kg po): 145 ng/mL; bioavailability ([1]; Sprague-Dawley [Crl: CD (SD)], plasma, 5 mg/kg po vs 0.5 mg/kg iv): 4.8%; AUC (po) ([1]; 5 mg/kg po): 1032 ng·h/mL; T1/2 ([1]; 5 mg/kg po): 8.88 h; Tmax ([1]; 5 mg/kg po): 1 h; AUC (iv) ([3]; 0.5 mg/kg iv): 2151 ng·h/mL
COc1cc(N2CCN(CC3CCN(c4ccc5c(c4)C(=O)N(C4CCC(=O)NC4=O)C5=O)CC3)CC2)ccc1Nc1ncc(Cl)c(Nc2ccccc2P(C)(C)=O)n1 (centres unmarked) [9c, 5-(4-((4-(4-((5-Chloro-4-((2-(dimethylphosphoryl)phenyl)amino)pyrimidin-2-yl)amino)-3-methoxyphenyl)piperazin-1-yl)methyl)piperidin-1-yl)-2-(2,6-dioxopiperidin-3-yl)isoindoline-1,3-dione]	2340 ng/mL	6.81 h	31700 ng·h/mL	3 h	77 µL/min/mg	0.3 h	19 ± 8 nM	22 nM	95%	2.35	87 µL/min/mg	0.663 h	236 ± 28 nM	AUC ([1]; Sprague-Dawley [Crl: CD (SD)], plasma, 2 mg/kg iv, read-out: AUC (iv)): 29400 ng·h/mL; bioavailability ([1]; Sprague-Dawley [Crl: CD (SD)], plasma, 10 mg/kg po vs 2 mg/kg iv): 21.6%
Cc1cc(Nc2ncc(Cl)c(Nc3ccccc3S(=O)(=O)C(C)C)n2)c(OC(C)C)cc1C1CCN(C2CCN(C3CN(c4cccc5c4C(=O)N(C4CCC(=O)NC4=O)C5=O)C3)CC2)CC1 (centres unmarked) [8f, 4-(3-(4-(4-((5-Chloro-4-((2-(isopropylsulfonyl)phenyl)amino)pyrimidin-2-yl)amino)-5-isopropoxy-2-methylphenyl)-[1,4′-bipiperidin]-1′-yl)azetidin-1-yl)-2-(2,6-dioxopiperidin-3-yl)isoindoline-1,3-dione]	–	–	–	–	–	–	115 ± 22 nM	189 nM	67%	–	–	–	3660 ± 299 nM	–
